Patent publication US8088806B2 (Achillion Pharmaceuticals, Inc., priority 2005, dated 2012)

Test system: HCV replicon
Assay: Replicon based assay of HCV replication inhibition (NPT ELISA)
Type: cell-based, Hepatitis C virus
Details: Hepatitis C virus, Huh-7, 72 h, Table I; Huh-7 HCV replicon-containing cells, three days; read-out: Activity
Outline: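 Huh-7 cells carrying a bicistronic HCV replicon (neo, EMCV-IRES-driven NS3–NS5B) treated overnight after seeding with usually 6 concentrations, 10 to 0.03 micromolar, for three days at 37° C without G418. Replication read as NPT level by captured ELISA; matched-DMSO wells and interferon alpha as controls.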

| SMILES | EC50 [nM] |
| --- | --- |
| Fc1ccc(-c2csc(NC3=NN(c4ccccc4)CC3)n2)cc1 [compound 146, N-(4-(4-fluorophenyl)thiazol-2-yl)-4,5-dihydro-1-phenyl-1H-pyrazol-amine] | > 10000 |
| N#Cc1ccc(Nc2nc(-c3ccc(F)cc3F)cs2)cc1 [compound 53, 4-(4-(2,4-difluorophenyl)thiazol-2-ylamino)benzonitrile] | > 10000 |
| N#Cc1cccc(Nc2nc(-c3ccc(Cl)c(Cl)c3)cs2)c1 [compound 56, 3-(4-(3,4-dichlorophenyl)thiazol-2-ylamino)benzonitrile] | > 10000 |
| c1ccc(Oc2ccc(CNc3nc(-c4cccnc4)cs3)cc2)cc1 [compound 80, N-(4-phenoxybenzyl)-4-(pyridin-3-yl)thiazol-2-amine] | > 10000 |
| c1ccc(Oc2ccc(CCNc3nc(-c4cccnc4)cs3)cc2)cc1 [compound 84, N-(4-phenoxyphenethyl)-4-(pyridin-3-yl)thiazol-2-amine] | > 10000 |
| FC(F)(F)c1cc(Nc2nc(-c3ccc(Cl)cc3)cs2)ccc1Cl [compound 62, N-(4-chloro-3-(trifluoromethyl)phenyl)-4-(4-chlorophenyl)thiazol-2-amine] | > 10000 |
| CCCCCOc1ccc(Nc2nc(-c3cccnc3)cs2)cc1C(F)(F)F [compound 7, N-(3-(trifluorometbyl)-4-(pentyloxy)phenyl)-4-(pyridin-3-yl)thiazol-2-amine] | < 1000 |
| Clc1ccc(-c2csc(Nc3cccc(Oc4ccccc4)c3)n2)cc1 [compound 34, 4-(4-chlorophenyl)-N-(3-phenoxyphenyl)thiazol-2-amine] | < 1000 |
| CCCCCOc1ccc(Nc2nc(C(=O)CBr)cs2)cc1C(F)(F)F [compound 204, 1-(2-(3-(trifluoromethyl)-4-(pentyloxy)phenylamino)thiazol-4-yl)-2-bromoethanone] | < 1000 |
| COc1ccc(Nc2nc(-c3ccccc3)c(-c3ccccc3)s2)cc1 [compound 119, N-(4-methoxyphenyl)-4,5-diphenylthiazol-2-amine] | < 1000 |
| COc1ccc(Nc2nc(-c3ccc(OCc4ccc(Br)cc4)cc3)cs2)cc1 [compound 122, 4-(4-(4-bromobenzyloxy)phenyl)-N-(4-methoxyphenyl)thiazol-2-amine] | > 10000 |

Same assay, conditions: Hepatitis C virus, Huh-7, 72 h, Table III; Huh-7 HCV replicon-containing cells, three days; read-out: Activity

| SMILES | EC50 [nM] |
| --- | --- |
| CCCCCCCCOC(=O)c1ccc(Nc2nc(-c3ccc(F)cc3)cs2)cc1C(F)(F)F [compound 700, octyl 4-(4-(4-fluorophenyl)thiazol-2-ylamino)-2-(trifluoromethyl)benzoate] | < 1000 |
| CCCC/C=C\CCOc1ccc(Nc2nc(-c3cccnc3)cs2)cc1C(F)(F)F [compound 531, N-(4-((Z)-oct-3-enyloxy)-3-(trifluoromethyl)phenyl)-4-(pyridin-3-yl)thiazol-2-amine] | < 1000 |
| CCCCCOc1ccc(Nc2nc(Cc3ccc(F)cc3)cs2)cc1F [compound 630, 4-(4-fluorobenzyl)-N-(3-fluoro-4-(pentyloxy)phenyl)thiazol-2-amine] | > 10000 |
| CCCCCCCCN(C)c1ncc(Nc2nc(-c3cccnc3)cs2)cc1C(F)(F)F [compound 684, 3-(trifluoromethyl)-N^2-methyl-N^2-octyl-N^5-(4-(pyridin-3-yl)thiazol-2-yl)pyridine-2,5-diamine] | > 10000 |
| CCCCCCCCN(C)c1ccc(Nc2nc(Cc3ccc(Cl)cc3)cs2)cc1 [compound 638, N^1-(4-(4-chlorobenzyl)thiazol-2-yl)-N^4-methyl-N^4-octylbenzene-1,4-diamine] | 1000 to 10000 |
| CCCCCCCCOc1ccc(Nc2nc(-c3cnccn3)cs2)cc1 [compound 598, N-(4-(octyloxy)phenyl)-4-(pyrazin-2-yl)thiazol-2-amine] | < 1000 |
| CCCCCCCCOc1ccc(Nc2nc(-c3ccc(C(F)(F)F)cn3)cs2)cc1C(F)(F)F [compound 709, N-(3-(trifluoromethyl)-4-(octyloxy)phenyl)-4-(5-(trifluoromethyl)pyridin-2-yl)thiazol-2-amine] | < 1000 |

Same assay, conditions: Hepatitis C virus, replicon based assay of HCV replication inhibition; Table II; read-out: Activity

| SMILES | EC50 [nM] |
| --- | --- |
| CCCCCOc1ccc(Nc2nc(CN3CCCC(C)C3)cs2)cc1F (stereo not shown) [compound 296, N-(3-fluoro-4-(pentyloxy)phenyl)-4-((3-methylpiperidin-1-yl)methyl)thiazol-2-amine] | 1000 to 10000 |
| CCCCCCCCOc1ccc(Nc2nc(-c3cccnc3)c(C(=O)OC)s2)cc1 [compound 444, meethyl 2-(4-(octyloxy)pheenylamino)-4-(pyridin-3-yl)thiazol-5-carboxylate] | 1000 to 10000 |
| CC(C)COc1ccc(Nc2nc(-c3ccc(CC(=O)O)s3)cs2)cc1C(F)(F)F [compound 244, 2-(5-(2-(4-isobutoxy-3-(trifluoromethyl)phenyl-amino)thiazol-4-yl)thiophen-2-yl)acetic acid] | < 1000 |
| CCCCCOc1ccc(Nc2nc(CN3CCC(C(C)(C)N)C3)cs2)cc1F (stereo not shown) [compound 305, 4-((3-(2-aminopropan-2-yl)pyrrolidin-1-yl)methyl)-N-(3-fluoro-4-(pentyloxy)phenyl)thiazol-2-amine] | 1000 to 10000 |
| CCCCCCCCOc1ccc(Nc2nc(Cc3cccnc3)cs2)cn1 [compound 497, 6-(octyloxy)-N-(4-((pyridin-3-yl)methyl)thiazol-2-yl)pyridin-3-amine] | 1000 to 10000 |
| CCCCCOc1ccc(Nc2nc(-c3cccnc3)c(C(=O)OC)s2)cc1C(F)(F)F [compound 443, methyl 2-(3-(trifluoromethyl)-4-(pentyloxy)phenylamino)-4-(pyridin-3-yl)thiazol-5-carboxylate] | < 1000 |
| CCCCCCCCOc1ccc(Nc2nc(CN3CCN(C4CCCCCC4)CC3)cs2)cc1 [compound 314, 4-((4-cycloheptylpiperazin-1-yl)methyl)-N-(4-(octyloxy)phenyl)thiazol-2-amine] | < 1000 |
| CCCCCOc1ccc(Nc2nc(CN3CCN(C4CCCCCC4)CC3)cs2)cc1F [compound 282, 4-((4-cycloheptylpiperazin-1-yl)methyl)-N-(3-fluoro-4-(pentyloxy)phenyl)thiazol-2-amine] | < 1000 |
| CCCCCCCOc1ccc(Nc2nc(-c3ccc(C(=O)N(C)C)nc3)cs2)cc1 [compound 457, 5-(2-(4-(heptyloxy)phenylamino)thia-zol-4-yl)-N,N-dimethylpyridine-2-carboxamide] | 1000 to 10000 |
| CCCCCCCOc1ccc(Nc2nc(-c3ccc(F)nc3)cs2)cc1 [compound 487, 4-(6-fluoropyridin-3-yl)-N-(4-(heptyloxy)phenyl)thiazol-2-amine] | < 1000 |
| CCCCCCCCOc1ccc(Nc2nc(-c3ccc(C(=O)O)cc3)cs2)cc1 [compound 303, 4-(2-(4-(octyloxy)phenylamino)thia-zol-4-yl)benzoic acid] | 1000 to 10000 |
| CCCCCOc1ccc(Nc2nc(-c3cccnc3C)cs2)cc1C(F)(F)F [compound 441, N-(3-(trifluoromethyl)-4-(pentyloxy)phenyl)-4-(2-methylpyridin-3-yl)thiazol-2-amine] | < 1000 |
| CCCCCCCCOc1ccc(Nc2nc(-c3ccccc3)cs2)cc1 [compound 327, N-(4-(octyloxy)phenyl)-4-phenylthiazol-2-amine] | < 1000 |
| CCCCCOc1ccc(Nc2nc(-c3cccs3)cs2)cc1C(F)(F)F [compound 358, N-(4-(pentyloxy)-3-(trifluoromethyl)phenyl)-4-(thiophen-2-yl)thiazol-2-amine] | < 1000 |
| CCCCCOc1ccc(Nc2nc(-c3ccc(C(=O)O)cc3)cs2)cc1F [compound 426, 4-(2-(3-fluoro-4-(pentyloxy)phenylamino)thia-zol-4-yl)benzoic acid] | 1000 to 10000 |
| CCCCCCCCOc1ccc(Nc2nc(-c3ccc(F)nc3)cs2)cc1 [compound 488] | < 1000 |
| CCCCCCCCOc1ccc(Nc2nc(CN3CCC(O)CC3)cs2)cc1 [compound 321, 1-((2-(4-(octyloxy)phenylamino)thia-zol-4-yl)methyl)piperidin-4-ol] | 1000 to 10000 |
| CCCCCOc1ccc(Nc2nc(-c3cn4cccnc4n3)cs2)cc1C(F)(F)F [compound 263, 4-(imidazo[1,2-a]pyrimidin-2-yl)-N-(4-(pentyloxy)-3-(trifluoromethyl)phenyl)thia-zol-2-amine] | < 1000 |

Same assay, conditions: Hepatitis C virus, replicon based assay of HCV replication inhibition; Table IV; read-out: Activity

| SMILES | EC50 [nM] |
| --- | --- |
| Cc1sc(Nc2ccc(OCC3CCCCC3)c(C(F)(F)F)c2)nc1-c1cccnc1 [compound 856, N-(4-(cyclohexylmethoxy)-3-(trifluoromethyl)phenyl)-5-methyl-4-(pyridin-3-yl)thiazol-2-amine] | < 1000 |
| CCCCCCCCOc1ccc(Nc2nc(-c3cccnc3)c(C#N)s2)cc1C(F)(F)F [compound 913, 2-(3-(trifluoromethyl)-4-(octyloxy)phenylamino)-4-(pyridin-3-yl)thiazole-5-carbonitrile] | 1000 to 10000 |
| CCCCCCCCOc1ccc(Nc2nc(C(=O)CNc3nccs3)cs2)cc1C(F)(F)F [compound 784, 1-(2-(3-(trifluoromethyl)-4-(octyloxy)phenylamino)thiazol-4-yl)-2-(thiazol-2-ylamino)ethanone] | < 1000 |
| CCCCCCCCNc1ccc(-c2nc(-c3csc(Nc4cccnc4)n3)cs2)cc1C(F)(F)F [compound 869, N-(4-(2-(3-(trifluoromethyl)-4-(octylamino)phenyl)thiazol-4-yl)thiazol-2-yl)pyridin-3-amine] | < 1000 |
| Fc1cc(Nc2nc(-c3cccnc3)cs2)ccc1OCCCc1ccco1 [compound 861, N-(4-(3-(furan-2-yl)propoxy)-3-fluorophenyl)-4-(pyridin-3-yl)thiazol-2-amine] | < 1000 |
| Fc1cc(Nc2nc(-c3cccc4nsnc34)cs2)ccc1OCC1CCCCC1 [compound 722, 4-(benzo[c][1,2,5]thiadiazol-4-yl)-N-(4-(cyclohexylmethoxy)-3-fluorophenyl)thiazol-2-amine] | 1000 to 10000 |
| NC(=O)c1ccc(Nc2nc(-c3cccnc3)cs2)cc1 [compound 873, 4-(4-(pyridin-3-yl)thiazol-2-ylamino)benzamide] | > 10000 |
